This passage reports IC50 results from PMC10408569, “Recruitment of hexahydroquinoline as anticancer scaffold targeting inhibition of wild and mutants EGFR (EGFR^WT, EGFR^T790M, and EGFR^L858R)” (Journal of Enzyme Inhibition and Medicinal Chemistry, 2023).

A short description of the data set: Cytotoxic effects in vitro on normal lung cells. Type of data set: cell-based. As to conditions: IMR-90 normal lung fibroblast cells; human normal lung fibroblast (IMR-90); read-out: IC50, cytotoxicity towards human normal cells IMR-90.

As a reminder, the IC50 is the midpoint of a concentration-inhibition curve.

As to `C#Cc1cccc(Nc2ncnc3cc(OCCOC)c(OCCOC)cc23)c1` [Erlotinib, erlotinib, reference compound], the IC50 stood at 39.6 ± 1.15 µM.
